The text below walks through data of article PMC9656735, “Eight Indole Alkaloids from the Roots of Maerua siamensis and Their Nitric Oxide Inhibitory Effects” (Molecules, 2022).

One data set relates to RAW 264.7 cells. The experiment in a line: Cytotoxicity / cell viability by MTT assay in LPS-induced RAW 264.7 cells. Type of data set: cell-based. The following applies: for Cytotoxicity: MTT, concentration at which cell viability was lower than 80%, maximum concentration 200 μM. The method, then:
(§1) The compounds were dissolved in DMSO to prepare their stock solutions at a concentration of 50 mM. Then, they were pipetted to mix in the culture medium to make the maximum tested concentration of 200 µM containing 0.4% DMSO. Then, the 200 µM tested solution was further diluted with a culture medium, giving the concentration series of 200, 100, 50, and 25 μM (2-fold dilution). The working concentrations of the test compounds [25, 50, 100, and 200 μM] were used to treat cells.
(§2) Raw264.7 cells were seeded at a density of 5 × 10^4 cells/well in a 96-well plate. The cells were pre-treated with various concentrations of samples for 24 h. Cells were induced with 100 ng/mL LPS for 24 h. The culture supernatant was collected for NO production analysis, and cells were further examined for their viability.
The cell viability was measured by the MTT assay. An MTT solution (1 mg/mL) was added to each well and incubated for 4 h at 37 °C. Then, the MTT solution was removed, and the formazan production was dissolved with DMSO. The absorbance was measured at 570 nm using a microplate reader (BioTeK, Santa Clara, CA, USA).

The subject of data set [1] is nitric oxide (NO) production in LPS-induced RAW 264.7 cells. The data set is described as follows: Inhibition of nitric oxide production in LPS-induced RAW 264.7 cells (Griess reagent). It counts as cell-based. The following applies: for IC50: Mus musculus; for nitric oxide inhibition activity compared with indomethacin: in words. On the procedure: as §1, §2
The NO production was measured using a Griess reagent kit (Invitrogen, Thermo Fisher Scientific, Waltham, MA, USA). Ninety µL of culture media were mixed with 10 µL of Griess reagent and incubated at room temperature for 30 min, and then the NO concentration was measured at 540 nm using the microplate reader. The percentage of NO production was calculated as Equation (1). (1) %NO production = A/B × 100
A: The concentration of the nitric oxide in the cells induced by LPS and with sample pre-treatment [LPS (+), sample (+)].
B: The concentration of nitric oxide in the cells induced by LPS without sample pre-treatment [LPS (+), sample (−)].
The NO inhibitory activity was expressed as half the maximum (IC50) of the inhibitory concentration calculated using GraphPad Prism 9.

Another data set has as its system NO. More on the design: method as in PMID 32163787. The following applies: read-out: NO inhibitory activity IC50; cited from earlier work.
Setting [2] is: RAW264.7, pre-treated 24 h, then 100 ng/mL LPS 24 h, Mean ± SD from three independent experiments, tested 25-200 μM, read-out: IC50 of NO Inhibition.

Like-named read-outs stand apart in the source and are kept apart here.

On to `COc1ccc2cc(C3=C(c4c[nH]c5cccc(OC)c45)N=C3[S+](C)[O-])[nH]c2c1` (stereo not drawn) [Compound 7, 4-methoxy-3-[3-(6-methoxy-1H-indol-2-yl)-2-(methylsulfinyl)azet-4-yl]-1H-indole], for which the Cytotoxicity result with RAW 264.7 cells is listed as “toxicity at 100 μM”. Also, in data set [1], the “inhibition of nitric oxide production (in words)” value (“inhibition … (in words)” for short) was “inhibited nitric oxide production” and the “nitric oxide inhibition activity compared with indomethacin” value is given as “stronger than indomethacin”. Also, in data set [1] (setting [2]), the IC50 was 31.1 ± 1.8 µM.

For `COc1ccc2c(CC#N)c([S+](C)[O-])[nH]c2c1` (stereo not drawn) [Compound 2, 2-(6-methoxy-2-(methylsulfinyl)-1H-indol-3-yl)acetonitrile], in the data set on RAW 264.7 cells, the Cytotoxicity is above 200 µM. In addition, in data set [1], the “inhibition … (in words)” value was “inhibited nitric oxide production” and the “nitric oxide inhibition activity compared with indomethacin” value is listed as “as strong as indomethacin”. In data set [1] (setting [2]), the IC50 turned out to be 187 ± 23.1 µM.

For the compound `COc1cccc2[nH]c3c(C#N)c4c(cc3c12)[nH]c1cc(O)ccc14` [Compound 8, 9-hydroxy-1-methoxy-5,11-dihydroindolo[3,2-b]carbazole-6-carbonitrile], in the data set with RAW 264.7 cells, the Cytotoxicity is above 200 µM. In data set [1], the “inhibition … (in words)” value is listed as “inhibited nitric oxide production” and the “nitric oxide inhibition activity compared with indomethacin” value is listed as “stronger than indomethacin”. In data set [1] (setting [2]), the IC50 was found to be 56.7 ± 3.8 µM.

In the data set with RAW 264.7 cells, `COc1ccc2c(c1)c(CC(=O)O)c(C)n2C(=O)c1ccc(Cl)cc1` [indomethacin, reference compound] returned a Cytotoxicity above 200 µM. In data set [1] (setting [2]), the IC50 came to 150 ± 16 µM.

The compound `CO/N=C(\C=C1\C(=O)Nc2cc(OC)ccc21)SC` [Compound 5, methyl (E)-N-methoxy-2-[(E)-6-methoxy-2-oxindolin-3-ylidene]ethanimidothiolate] yielded a Cytotoxicity in the data set on RAW 264.7 cells above 200 µM. For the same compound, in data set [1], the “inhibition … (in words)” value is given as “inhibited nitric oxide production” and the “nitric oxide inhibition activity compared with indomethacin” value is “stronger than indomethacin”. The IC50 in data set [1] (setting [2]) was found to be 92.2 ± 8.9 µM.

In the data set with RAW 264.7 cells, `CO/N=C(\SC)C(=O)c1c[nH]c2cc(OC)ccc12` [Compound 4, methyl (Z)-N-methoxy-2-(6-methoxy-1H-indol-3-yl)-2-oxoethanimidothioate] showed a Cytotoxicity above 200 µM. In addition, the IC50 in data set [1] (RAW264.7, above the 200 μM maximum tested concentration, Mean ± SD, read-out: IC50 of NO Inhibition (value in parentheses, above the maximum tested concentration)) was above 200 µM; in data set [1] (setting [2]) it was above 200 µM.

`CO/N=C(/Cc1c[nH]c2cc(OC)ccc12)SC` [Compound 3, methyl (Z)-N-methoxy-2-(6-methoxy-1H-indol-3-yl)ethanimidothioate]: the Cytotoxicity result with RAW 264.7 cells was “toxicity at 100 μM”.

isatindigoside G: the IC50 in the data set with NO was 67.3 ± 5.5 µM.

As for isatindigoside F, the IC50 in the data set on NO is 70.3 ± 6.9 µM.

As for `COc1ccc2cc(C3=C(c4c[nH]c5cccc(OC)c45)N=C3SC)[nH]c2c1` [Compound 6, 4-methoxy-3-[3-(6-methoxy-1H-indol-2-yl)-2-(methylthio)azet-4-yl]-1H-indole], in the data set with RAW 264.7 cells (IC50 of NO inhibition could not be determined), the “cytotoxicity (in words)” value is listed as “too cytotoxic”. Besides, in the data set on RAW 264.7 cells, the Cytotoxicity result is on record as “toxicity at 100 μM”.

The compound `COc1ccc2c(c1)NC(=O)[C@]2(O)CC#N` [Compound 1, (+)-(S)-2-(3-hydroxy-6-methoxy-2-oxoindolin-3-yl)acetonitrile] had a Cytotoxicity in the data set with RAW 264.7 cells above 200 µM. Also, in data set [1], the “inhibition … (in words)” value is “inhibited nitric oxide production” and the “nitric oxide inhibition activity compared with indomethacin” value is on record as “as strong as indomethacin”. In data set [1] (setting [2]), the IC50 amounted to 186 ± 22.5 µM.
